23 compounds from patent publication US20100113276A1, “USE OF N2-PHENYLAMIDINES AS HERBICIDES” (BAYER CROPSCIENCE AG, priority 2007, published 2010) can be followed below.

This data set can be described thus: log P by HPLC on reversed-phase column (C18), EEC Directive 79/831 Annex V.A8. Particulars: C18, 40° C.; for log p HCO2H: aqueous formic acid / acetonitrile; for log p H3PO4: 0.1% aqueous phosphoric acid / acetonitrile. In kind it is physicochemical. The protocol: The log P data were determined in accordance with the EEC Directive 79/831 Annex V.A8 by HPLC (High Performance Liquid Chromatography) on a reversed-phase column (C18) using the following methods: […]
Calibration was carried out with the help of unbranched alkan-2-ones (consisting of 3 to 13 or 16 carbon atoms) with known logP values (determination of the logP values via the retention times by means of linear interpolation between two subsequent alkanones).

In the case of `CCN(C)C=Nc1cc(OC)c(Oc2ccc(Cl)c(C(F)(F)F)c2)cc1C` [compound 721], the log p acidic is reported as 2.21.

`Cc1cc(Oc2cc(Cl)cc(C(F)(F)F)c2)c(Cl)cc1N=CN(C)C` [compound 564] gave a log p acidic of 2.51.

On to `CCN(C)C=Nc1cc(C)c(C=Cc2ccc(OC)cc2)cc1C` [compound 286], for which the “log p HCO2H” value is reported as 2.06.

In the case of `Cc1cc(Oc2cc(C(C)(C)C)nn2C)c(Cl)cc1N=CN1CCCCC1` [compound 600], the log p acidic turned out to be 1.90 and the log p neutral is recorded as 5.34.

In turn, `CCCN(C)C=Nc1cc(Cl)c(Oc2cc(C(C)(C)C)nn2C)cc1C` [compound 597] gave a log p acidic of 1.90 and a log p neutral of 5.09.

Consider `Cc1cc(Oc2cc(F)cc(C(F)(F)F)c2)c(C)cc1N=CN1CCCCC1` [compound 373], for which the log p acidic is reported as 2.29.

On to `CCN(C)C=Nc1cc(C)c(Oc2cccc(Oc3ccccc3)c2)cc1C` [compound 290], for which the log p acidic is on record as 2.51.

In turn, `Cc1cc(Oc2cc(F)cc(Br)c2)c(C)cc1N=CN(C)C` [compound 1] came in with a log p acidic of 2.17 and a log p neutral of 5.11.

As for `CCN(C)C=Nc1cc(Cl)c(Oc2nc(C(C)(C)C)ns2)cc1C` [compound 608], the log p acidic is 2.01, the “log p HCO2H” value was 2.01 and the log p neutral is given as 5.31.

As to `Cc1cc(-c2ccc(C(C)(C)C)cc2)c(C)cc1N=CN(C)C` [compound 445], the log p acidic was determined as 2.71 and the log p neutral was 5.74.

For `Cc1cc(N=CN2CCCCC2)c(Cl)cc1Oc1ccc(C(C)(C)C)cc1` [compound 886], the “log p H3PO4” value came to 3.01, the “log p HCO2H” value is 2.78 and the log p neutral is 6.49.

`Cc1cc(N=CN2CCCCC2)c(Cl)cc1Oc1ccc(Cl)c(C(C)(C)C)c1` [compound 906]: the “log p H3PO4” value amounted to 3.36, the “log p HCO2H” value is 3.25 and the log p neutral is recorded as 7.04.

As for `CCN(C)C=Nc1cc(C)c(CCc2ccccc2F)cc1C` [compound 345], the “log p HCO2H” value is recorded as 2.45.

As to `Cc1cc(N=CN(C)C)c(Cl)cc1Oc1ccc(Cl)c(C(F)(F)F)c1` [compound 892], the “log p H3PO4” value was found to be 2.35, the “log p HCO2H” value stood at 2.3 and the log p neutral came out at 5.08.

As to `CCN(C)C=Nc1cc(Cl)c(Oc2ccc(Cl)c(C(F)(F)F)c2)cc1Cl` [compound 816], the “log p H3PO4” value is 2.6, the “log p HCO2H” value is 2.65 and the log p neutral was found to be 5.56.

Consider `CCN(C)C=Nc1cc(Cl)c(Oc2ncnc(Oc3ccc(Cl)cc3)c2F)cc1C` [compound 620], for which the “log p HCO2H” value was found to be 2.20.

Consider `CCN(C)C=Nc1cc(C)c(Oc2cccc(C(C)(C)C)c2)cc1Cl` [compound 870], for which the “log p H3PO4” value is recorded as 2.76, the “log p HCO2H” value is given as 2.55 and the log p neutral is listed as 5.79.

Compound `CCN(C)C=Nc1cc(Cl)c(Oc2cc(C(C)C)nn2C)cc1C` [compound 602] registered a log p acidic of 1.65 and a log p neutral of 4.04.

Compound `CCN(C)C=Nc1cc(F)c(Oc2cccc(C(C)(C)C)c2)cc1F` [compound 830] showed a log p acidic of 2.4.

`Cc1cc(-c2ccc(Cl)cc2C)c(C)cc1N=CN(C)C` [compound 393] gave a log p acidic of 2.24 and a log p neutral of 5.62.

The compound `CCN(C)C=Nc1cc(C(F)(F)F)c(-c2ccc(C(C)(C)C)cc2)cc1Cl` [compound 962] displayed a log p acidic of 2.74 and a log p neutral of 6.15.

`CCN(C)C=Nc1cc(Cl)c(Oc2cc(Cl)cc(C(F)(F)F)c2)cc1C` [compound 565] gave a log p acidic of 2.64.

With `CCN(C)C=Nc1cc(C(F)(F)F)c(Oc2ccc(Cl)c(C(C)(C)C)c2)cc1Cl` [compound 944], the “log p H3PO4” value stood at 3.35, the “log p HCO2H” value came out at 3.39 and the log p neutral worked out at 6.63.
